Results from patent US7718655B2, “Trisubstituted triazine compounds, and methods for making and using the compounds, which have antitubulin activity” (New York University, priority 2001, dated 2010).
Where two headings read alike, the source gives them in different places.

Tests used:
tubulin = tested on: T1, tubulin; test: In vitro microtubule disassembly assay; format: biochemical; settings: tubulin and rhodamine-tubulin, 37° C. for 20 minutes, fluorescence microscopy
T1 construct: fused on or other part: rhodamine label on part of the tubulin (a fluorescent tracer, not a protein)
Protocol: In Vitro Microtubule Disassembly Assay
Reagent A was made by mixing 250 mg/25 mL tubulin and rhodamine-tubulin (60 mg/6 mL), purchased from Cytoskeleton, with 20 mL, 10 mM GTP at 0° C. Reagent B was made by dissolving the compounds (various concentrations, 2 mL in DMSO) in 2×assay buffer (200 mL, 80 mM K PIPES (pH 7.5), 5 mM MgCl2, 1 mM EDTA). Two mL of Reagent A and two mL of Reagent B were mixed in a […] and incubated at 37° C. for 20 minutes. Then, 100 uL of 60% glycerol was added and mixed by gently pipetting the mixture up and down three times. Two uL of the mixture was placed onto a glass slide, covered with a coverslip, and observed by fluorescence microscopy (400×magnification, rhodamine channel).

[1] = tested on: Human U937 leukemia cells; test: Growth inhibition of cancer cells (MTS); format: cell-based; settings: 490 nm, read-out: IC50 (Cancer cell growth inhibition)
Protocol: Growth Inhibition of Cancer Cells
Human U937 leukemia cells were obtained from ATCC. Cells were grown in proliferation media (RPMI-1640 plus 2.38 g/L HEPES, 4.5 g/L glucose, 1.5 g/L NaHCO3, 0.3 g/L Glutamine, 0.11 g Na Pyruvate) plus 20% fetal calf serum. Cells were kept at 37° C., 5% CO2, at a concentration of 0.2-1×10^6 cells/ml. To a 100 μl cell suspension in 96-well plate (1×10^4 cells/well), 20 μl of MTS tetrazolium reagent solution (Promega) in RPMI -1640 medium was added for 2 hours at 37° C. in a 5% CO2 atmosphere. After the incubation period, the reduced formazan product was measured at 490 nm using a plate reader.

[2] = Homo sapiens, U-937, MTS tetrazolium reagent

| IC50 (tubulin) [µM] | IC50 [1, 2] [µM] | IC50 ([1]; MTS tetrazolium reagent) [µM] | Compound |
| --- | --- | --- | --- |
| < 20 | 18 |  | CNc1nc(NCc2ccc(OC)cc2)nc(NCc2ccc(OC)cc2)n1 [Compound S33] |
| < 20 |  | 12 | COc1ccc(CNc2nc(NCc3ccc(OC)cc3)nc(N3CCOCC3)n2)cc1 [Compound S78, N′,N″-Bis-(4-methoxybenzyl)-6-morpholin-4-yl-[1,3,5]Triazine-2,4-diamine] |
| < 20 | 9 |  | COc1ccc(CNc2nc(NCc3ccc(OC)cc3)nc(NC(C)C)n2)cc1 [Compound S84, N-Isopropyl-N′,N″-bis-(4-methoxybenzyl)-[1,3,5]Triazine-2,4,6-triamine] |
| < 20 | 20 |  | CCNc1nc(NCc2ccc(OC)cc2)nc(NCc2ccc(OC)cc2)n1 [Compound S51] |
| < 20 | 20 |  | COc1ccc(CNc2nc(NCCO)nc(NCc3ccc(OC)cc3)n2)cc1 [Compound S34] |
| < 20 | 5 |  | COc1ccc(CNc2nc(NCc3ccc(OC)cc3)nc(NC3CCCCC3)n2)cc1 [Compound S77, N-Cyclohexyl-N′,N″-bis-(4-methoxybenzyl)-[1,3,5]Triazine-2,4,6-triamine] |
| < 20 | 12 |  | COc1ccc(CNc2nc(NCc3ccc(OC)cc3)nc(NC3CCC3)n2)cc1 [Compound S43] |

More lines, now with the values behind:

| Compound | IC50 (tubulin) [µM] | IC50 [1, 2] [µM] | IC50 ([1]; MTS tetrazolium reagent) [µM] |
| --- | --- | --- | --- |
| COc1ccc(CNc2nc(NCc3ccc(OC)c(OC)c3)nc(NC3CCCCC3)n2)cc1 [Compound S53] | 2.5 | 1 |  |
| COc1ccc(CNc2nc(NCc3ccc(OC)cc3)nc(NCC3CCCO3)n2)cc1 (stereo not drawn) [Compound S17] | < 20 | 10 |  |
| COc1ccc(CNc2nc(NCc3ccc(OC)cc3)nc(NC3CC3)n2)cc1 [Compound S22] | < 20 | 25 |  |
| COc1ccc(CNc2nc(NCc3ccc(OC)cc3)nc(NC3CCCC3)n2)cc1 [Compound S1] | 8 | 10 |  |
| CCC(C)Nc1nc(NCc2ccc(OC)cc2)nc(NCc2ccc(OC)cc2)n1 (stereo not drawn) [Compound S25] | < 20 | 25 |  |
